Earlier results in US20200330378A1, “TASTE-ENHANCED C[…] EMULSION SYRUP COMPOSITIONS” (ICDPHARMA LTD., priority 2018, published 2020).

How the values were obtained:
[1] = subjects given THC
[2] = system: human lung tumors implanted into rats and mice
[3] = patients with insomnia; 160 mg dose of CBD compared to placebo
[4] = 75-300 mg of CBD taken daily

Row | SMILES | amount of time to fall asleep [1] | reduction in tumor mass and volume ([2]; human lung tumors implanted into rats and mice) [%] | reduction of cancerous lesions in the lungs ([2]; rats and mice) | length of sleep [3] | symptoms of REM sleep behavior disorder [4]
1 | CCCCCc1cc(O)c2c(c1)OC(C)(C)[C@@H]1CCC(C)=C[C@@H]21 [THC, tetrahydrocannabinol] | significant decrease | ≤ 50 | around 60% | – | –
2 | C=C(C)[C@@H]1CCC(C)=C[C@H]1c1c(O)cc(CCCCC)cc1O [CBD, cannabidiol] | – | – | – | increased | reduce or eliminate entirely
